Test results as given in patent publication US20230263914A1, “BENZENE RING-CONTAINING GLUCOSE DERIVATIVE AND USE THEREOF” (priority 2020, published 2023).

How the values were obtained:
[1] = Determination of lipid-water partition coefficient (n-octanol/PBS pH 7.4); format: physicochemical; conditions: n-octanol/phosphate buffer solution (PBS), n-octanol / PBS 0.025 M
Protocol: A 2 mL centrifuge tube was added with 100 µL (10µCi) of a labeling solution, then added with 950 µL of n-octanol and 850 µL of phosphate buffer solution (PBS, 0.025 M, pH=7.4). The 2 mL centrifuge tube was subjected to vortex for 3 min (2,500 rpm) and standing until the reaction solution was layered, and then centrifuged at 9,000 rpm for 5 min. Three samples (each for 100 µL) were collected from each of the two phases, and placed in γ-counter for the determination of radioactive counting. The lipid-water partition coefficient (P) was calculated by Organic phase radioactive counting/ water phase radioactive counting, and was usually expressed as Log P. The log P values of the radioactive compounds provided in Examples 1-4 were shown in Table 3.

S180 tumor = experiment: Biodistribution in tumor-bearing mice; format: in vivo; conditions: for Blood / Bone / Heart / Kidney / Liver / Lung / Muscle / Small intestine / Spleen / Thyroid / Tumor / Tumor/blood ratio / Tumor/muscle ratio: i.v., mice bearing S180 tumor
Protocol: The mice bearing S180 tumors were injected intravenously via the tail vein respectively with the solutions (0.1 mL, 370 kBq) containing the radioactive drugs of Examples 1-4. The mice bearing S180 tumors were sacrificed by decapitation at different time points (30 min, 120 min) after the injection (5 mice for each time point). After dissection, the heart, liver, lung, kidney, spleen, bone, muscle, small intestine, blood and tumors were harvested, and measured for radioactivity with the γ-counter. The biodistribution individual organs or tissues was expressed as the percentage of the injected dose per gram of organ or tissue (% ID/g).

O=C(NC1C(O)OC(CO)C(O)C1O)c1cccc([N+]#[C][99Tc+]([C]#[N+]c2cccc(C(=O)NC3C(O)OC(CO)C(O)C3O)c2)([C]#[N+]c2cccc(C(=O)NC3C(O)OC(CO)C(O)C3O)c2)([C]#[N+]c2cccc(C(=O)NC3C(O)OC(CO)C(O)C3O)c2)([C]#[N+]c2cccc(C(=O)NC3C(O)OC(CO)C(O)C3O)c2)[C]#[N+]c2cccc(C(=O)NC3C(O)OC(CO)C(O)C3O)c2)c1 (stereo not shown) [^99mTc-3-CNBzDG]
logP [1]: -3.74 ± 0.038
Blood (S180 tumor; 30 min, n=5, mean ± SD): 2.53 ± 0.83 % ID/g
Bone (S180 tumor; 30 min, n=5, mean ± SD): 1.44 ± 0.29 % ID/g
Heart (S180 tumor; 30 min, n=5, mean ± SD): 1.44 ± 0.21 % ID/g
Kidney (S180 tumor; 30 min, n=5, mean ± SD): 6.69 ± 0.68 % ID/g
Liver (S180 tumor; 30 min, n=5, mean ± SD): 1.38 ± 0.24 % ID/g
Lung (S180 tumor; 30 min, n=5, mean ± SD): 4.00 ± 0.52 % ID/g
Muscle (S180 tumor; 30 min, n=5, mean ± SD): 0.77 ± 0.06 % ID/g
Small intestine (S180 tumor; 30 min, n=5, mean ± SD): 2.05 ± 0.29 % ID/g
Spleen (S180 tumor; 30 min, n=5, mean ± SD): 1.06 ± 0.27 % ID/g
Thyroid (S180 tumor; 30 min, n=5, mean ± SD): 0.03 ± 0.01 %ID/g
Tumor (S180 tumor; 30 min, n=5, mean ± SD): 2.51 ± 0.52 % ID/g
Tumor/blood ratio (S180 tumor; 30 min, n=5, mean ± SD): 1.04 ± 0.22
Tumor/muscle ratio (S180 tumor; 30 min, n=5, mean ± SD): 3.28 ± 0.66
Blood (S180 tumor; 120 min, mean ± SD): 0.27 ± 0.02 % ID/g
Bone (S180 tumor; 120 min, mean ± SD): 0.42 ± 0.03 % ID/g
Heart (S180 tumor; 120 min, mean ± SD): 0.54 ± 0.07 % ID/g
Kidney (S180 tumor; 120 min, mean ± SD): 4.49 ± 0.56 % ID/g
Liver (S180 tumor; 120 min, mean ± SD): 0.89 ± 0.09 % ID/g
Lung (S180 tumor; 120 min, mean ± SD): 0.76 ± 0.20 % ID/g
Muscle (S180 tumor; 120 min, mean ± SD): 0.24 ± 0.05 % ID/g
Small intestine (S180 tumor; 120 min, mean ± SD): 0.70 ± 0.10 % ID/g
Spleen (S180 tumor; 120 min, mean ± SD): 0.43 ± 0.17 % ID/g
Thyroid (S180 tumor; 120 min, mean ± SD): 0.01 ± 0.00 %ID/g
Tumor (S180 tumor; 120 min, mean ± SD): 1.47 ± 0.22 % ID/g
Tumor/blood ratio (S180 tumor; 120 min, mean ± SD): 5.39 ± 0.79
Tumor/muscle ratio (S180 tumor; 120 min, mean ± SD): 6.16 ± 0.71
target/non-target ratio compared with 99mTc-CNPEDG (S180 tumor; 120 min p.i., in words): better target/non-target ratio
tumor uptake compared with 99mTc-CNPEDG (S180 tumor; 120 min p.i., in words): lower tumor uptake
tumor/muscle, tumor/blood and tumor/lung ratio compared with p-substituted 99mTc complexes (S180 tumor; 120 min p.i., in words): higher
Tumor/lung ratio (S180 tumor; 120 min p.i., mean ± SD): 2.01 ± 0.35
